Assay results from US20110136766A1, “AURORA KINASE INHIBITORS” (Vitae Pharmaceuticals, Inc., priority 2008, published 2011).
Like-named read-outs stand apart in the source and are kept apart here.

Experiments:
Colo205 = assay: CellTiter-Glo cell viability assay, Colo205; assay type: cell-based; conditions: Homo sapiens, read-out: Colo205 IC50
Excerpt: (§1) The CellTiter-Glo® Luminescent Cell Viability Assay is a homogeneous method of determining the number of viable cells in culture based on quantitation of the ATP present, which signals the presence of metabolically active cells. The homogeneous assay procedure involves addition of a single reagent directly to cells cultured in serum-supplemented medium. The homogeneous format results in cell lysis and generation of a luminescent signal proportional to the amount of ATP present. The CellTiter-Glo® Assay relies on the properties of a proprietary thermostable luciferase (Ultra-Glo. Recombinant Luciferase), which generates a stable glow-type Luminescent signal. The half-life of the luminescent signal resulting from this reaction is greater than five hours. This extended half-life eliminates the need for reagent injectors and provides flexibility for continuous or batch-mode processing of multiple plates. The unique homogeneous format reduces pipetting errors that may be introduced during the multiple steps required by other ATP-measurement methods.
(§2) 96 Well cell culture plates were seeded with 10^3 mammalian cells (Colo205, HL-60, SW620, HCT116, MCF-7 and MV-411) in 100 μl culture medium. The cells were incubated overnight prior to initiating the assay. Control wells were prepared on a plate containing medium only to obtain a value for background luminescence.
(§3) Compounds to be tested were added to experimental wells and incubated for 72 hrs (Colo205, HL-60, MV-411), 168 hrs (HCT116, SW620) or 240 hrs (MCF-7). Wells were also set up to as vehicle controls with the addition of 0.1% DMSO. At the end of the incubation period, the plates were equilibrated to room temperature for approximately 30 minutes.
(§4) Lyophilized CellTiter-Glo® Substrate and the CellTiter-Glo® Buffer were warmed to room temperature. The CellTiter-Glo® Buffer was mixed with the CellTiter-Glo® Substrate to reconstitute the lyophilized enzyme/substrate mixture. This forms the CellTiter-Glo® Reagent. The contents were mixed by gently vortexing, swirling or by inverting the contents to obtain a homogeneous solution. 100 μl of CellTiter-Glo® Reagent was added to the cell culture medium present in each well. The contents were mixed for 2 minutes on an orbital shaker to induce cell lysis. The plates were allowed to incubate at room temperature for 10 minutes to stabilize luminescent signal. The contents of the 96 well cell culture plate were then transferred to a white 96 well Optiplate (Perkin Elmer). The luminescence was recorded on Wallac 1420 VICTOR^2 V Multilabel Platereader (An integration time of 0.25-1 second per well).
(§5) 10 mM DMSO stock Compounds were serially diluted threefold in DMSO. Subsequent dilutions made into cell culture media prior to addition to cells to maintain the DMSO concentration at or below 0.1% to avoid cell toxicity.
(§6) The IC50s in Table 2 are the concentration at which 50% growth inhibition relative to control occurs.

MV-411 = assay: CellTiter-Glo cell viability assay, MV-411; assay type: cell-based; conditions: Homo sapiens, read-out: MV-411 IC50
Excerpt: as §1, §2, §3, §4, §5, §6

HL-60 = assay: CellTiter-Glo cell viability assay, HL-60; assay type: cell-based; conditions: Homo sapiens, read-out: HL-60 IC50
Excerpt: as §1, §2, §3, §4, §5, §6

SW620 = assay: CellTiter-Glo cell viability assay, SW620; assay type: cell-based; conditions: Homo sapiens, read-out: SW620 IC50
Excerpt: as §1, §2, §3, §4, §5, §6

MCF-7 = assay: CellTiter-Glo cell viability assay, MCF-7; assay type: cell-based; conditions: Homo sapiens, read-out: MCF-7 IC50
Excerpt: as §1, §2, §3, §4, §5, §6

HCT116 = assay: CellTiter-Glo cell viability assay, HCT116; assay type: cell-based; conditions: Homo sapiens, read-out: HCT116 IC50
Excerpt: as §1, §2, §3, §4, §5, §6

[1] = molecular target: T1, full-length human Aurora A (Homo sapiens, UniProt O14965); assay: Aurora A phosphocellulose filter binding kinase activity assay; assay type: biochemical; conditions: 11 nM Aurora A, 10 μM ATP, 50 μM Kemptide, 45 min; read-out: Aur-A IC50
T1 construct: The full-length human Aurora A carrying His6 tag at the N-terminus; His6 (N); purchased Invitrogen, Carlsbad, Calif
T1 sequence (O14965 1-403): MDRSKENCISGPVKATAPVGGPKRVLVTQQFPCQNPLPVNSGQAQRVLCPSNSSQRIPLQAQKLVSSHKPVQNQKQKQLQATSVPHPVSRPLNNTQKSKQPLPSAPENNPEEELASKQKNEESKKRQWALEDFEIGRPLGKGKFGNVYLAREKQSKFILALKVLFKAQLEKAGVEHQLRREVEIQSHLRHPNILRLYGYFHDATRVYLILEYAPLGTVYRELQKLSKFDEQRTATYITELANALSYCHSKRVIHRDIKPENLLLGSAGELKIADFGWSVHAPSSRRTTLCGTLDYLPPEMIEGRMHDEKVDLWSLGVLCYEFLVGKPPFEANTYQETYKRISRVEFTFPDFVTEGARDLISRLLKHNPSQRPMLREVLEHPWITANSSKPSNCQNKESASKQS
Method: (§7) Kinase activity of Aurora kinases was measured by phosphocellulose filter binding assay. The full-length human Aurora A carrying His6 tag at the N-terminus (Invitrogen, Carlsbad, Calif.) and the full-length human Aurora B (N-terminal GST fusion) co-expressed and co-purified with the His6-INCENP INBOX, aminoacids 803-918 (Carna BioSciences, Japan) were used as the enzyme in the assays. Tested compounds were diluted in DMSO and pre-incubated with the enzyme and ATP/Mg^2+ mixture for at least 10 minutes. The reaction was started by addition of the Kemptide peptide substrate (LRRASLG) and allowed to proceed for 45 min at room temperature. Each reaction in a final volume of 40 μl contained 50 μM Kemptide, 10 μM [γ-^33P]ATP (1 Ci/mmol) and either 11 nM Aurora A or 1.5 nM Aurora B/INCENP complex in the buffer containing 10 mM MgCl2, 5% DMSO, 20 mM MOPS, pH 7.2, 25 mM β-glycerol phosphate, 5 mM EGTA, 1 mM Na3VO4 and either 0.1 mg/ml of BSA and 1 mM DTT for Aurora A or 0.01% Triton-X100 and 2 mM DTT for Aurora B. The reaction was stopped with 25 μl of 5% H3PO4, and 45 μl of the mixture was transferred into a MultiScreen-PH filterplate (Millipore) pre-washed with 0.85% H3PO4. The filterplate was washed 4 times with 200 μl of 0.85% H3PO4 on a vacuum manifold. Scintillation fluid (50 μl of Ultima Gold™ LLT, PerkinElmer, Waltham, Mass.) was added to each well, and after 1-hr incubation at room temperature the plates were counted on MicroBeta (PerkinElmer, Waltham, Mass.) plate reader. […] Percent inhibition values were calculated based on the counts of the positive and negative controls, and these values were regressed against inhibitor concentration and fit into a four parameter model. From this fit the IC50 values (the inhibitor concentration at which 50% inhibition occurs) were derived as the inflection point on the semi-logarithm inhibition curve.

[2] = molecular target: T2, full-length human Aurora B/INCENP complex (Homo sapiens, UniProt Q96GD4); assay: Aurora B phosphocellulose filter binding kinase activity assay; assay type: biochemical; conditions: 1.5 nM Aurora B/INCENP complex, 10 μM ATP, 50 μM Kemptide, 45 min; read-out: Aur-B IC50
T2 construct: the full-length human Aurora B (N-terminal GST fusion); GST (N); purchased Carna BioSciences, Japan
T2 sequence (Q96GD4 whole entry, the tested form may be a part): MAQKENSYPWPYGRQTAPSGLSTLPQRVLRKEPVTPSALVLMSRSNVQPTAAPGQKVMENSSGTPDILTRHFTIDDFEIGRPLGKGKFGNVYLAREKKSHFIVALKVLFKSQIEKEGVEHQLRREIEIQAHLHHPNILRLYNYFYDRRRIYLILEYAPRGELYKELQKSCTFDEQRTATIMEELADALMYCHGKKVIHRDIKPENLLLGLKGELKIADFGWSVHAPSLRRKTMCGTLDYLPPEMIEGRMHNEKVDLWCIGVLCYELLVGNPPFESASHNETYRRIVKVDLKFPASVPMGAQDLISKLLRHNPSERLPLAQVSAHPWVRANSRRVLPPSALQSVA
T2 sequence (Q9NQS7 803-918 partner limits assumed): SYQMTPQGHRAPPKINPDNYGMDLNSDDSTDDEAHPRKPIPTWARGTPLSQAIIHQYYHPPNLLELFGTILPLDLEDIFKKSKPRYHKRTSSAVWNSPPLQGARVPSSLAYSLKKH
Method: as §7

[3] = COLO 205, Colorectal cancer, 72 hrs, 50% growth inhibition relative to control
[4] = HCT-116, Colorectal cancer, 168 hrs, 50% growth inhibition relative to control

CCN(CCO)CCCOc1ccc2c(Nc3cc(CC(=O)Nc4cccc(F)c4)[nH]n3)ncnc2c1 [AZD1152HQPA, reference compound]
IC50 (Colo205; COLO 205, 72 h): 23 nM
IC50 (MV-411; MV4-11, 72 h): 16.5 nM
IC50 (HL-60; HL-60, 72 h): 7.16 nM
IC50 (SW620; SW-620, 168 h): 20.9 nM
IC50 (MCF-7; MCF7, 240 h): 60.7 nM
IC50 (HCT116; HCT-116, 168 h): 14.3 nM

CN1CCN(S(=O)(=O)c2ccc(-c3ccc4c(Nc5cc(CC(=O)Nc6cccc(F)c6)[nH]n5)ncnc4c3)cc2)CC1 [Compound 7, N-(3-fluorophenyl)-2-(3-(7-(4-(4-methylpiperazin-1-ylsulfonyl)phenyl)quinazolin-4-ylamino)-1H-pyrazol-5-yl)acetamide]
IC50 [1]: 13.9 nM
IC50 [2]: 0.93 nM

O=C(Cc1cc(Nc2ncnc3ccccc23)n[nH]1)Nc1cccc(F)c1 [Compound 8, N-(3-fluorophenyl)-2-(3-(quinazolin-4-ylamino)-1H-pyrazol-5-yl)acetamide]
IC50 [1]: 2480 nM
IC50 [2]: 14.9 nM

O=C(Cc1cc(Nc2ncnc3cc(-c4ccc(C(=O)N5CCN(CC6CC6)CC5)cc4)ccc23)n[nH]1)Nc1cccc(F)c1 [Compound 9, 2-(3-(7-(4-(4-(Cyclopropylmethyl)piperazine-1-carbonyl)phenyl)quinazolin-4-ylamino)-1H-pyrazol-5-yl)-N-(3-fluorophenyl)acetamide]
IC50 [1]: 9.51 nM
IC50 (Colo205; [3]): 9.88 nM
IC50 [2]: 1.88 nM
IC50 (HCT116; [4]): 4.38 nM

O=C(Cc1cc(Nc2ncnc3cc(-c4ccc(C(=O)N5CCN(C6CC6)CC5)cc4)ccc23)n[nH]1)Nc1cccc(F)c1 [Compound 10, 2-(3-(7-(4-(4-Cyclopropylpiperazine-1-carbonyl)phenyl)quinazolin-4-ylamino)-1H-pyrazol-5-yl)-N-(3-fluorophenyl)acetamide]
IC50 [1]: 4.62 nM
IC50 (Colo205; [3]): 5.35 nM
IC50 [2]: 1.23 nM
IC50 (HCT116; [4]): 1.57 nM

C[C@@H]1CN(C(=O)c2ccc(-c3ccc4c(Nc5cc(CC(=O)Nc6cccc(F)c6)[nH]n5)ncnc4c3)cc2)C[C@H](C)N1 [Compound 11, 2-(3-(7-(4-((3S,5R)-3,5-dimethylpiperazine-1-carbonyl)phenyl)quinazolin-4-ylamino)-1H-pyrazol-5-yl)-N-(3-fluorophenyl)acetamide]
IC50 [1]: 6.42 nM
IC50 (Colo205; [3]): 2.9 nM
IC50 [2]: 1.37 nM
IC50 (HCT116; [4]): 1.62 nM

O=C(Cc1cc(Nc2ncnc3cc(-c4ccc(C(=O)N5CCN(CCF)CC5)cc4)ccc23)n[nH]1)Nc1cccc(F)c1 [Compound 12, 2-(3-(7-(4-(4-(2-Fluoroethyl)piperazine-1-carbonyl)phenyl)quinazolin-4-ylamino)-1H-pyrazol-5-yl)-N-(3-fluorophenyl)acetamide]
IC50 [1]: 2.86 nM
IC50 (Colo205; [3]): 7.82 nM
IC50 [2]: 0.74 nM
IC50 (HCT116; [4]): 3.98 nM

O=C(Cc1cc(Nc2ncnc3cc(-c4ccc(C(=O)N5CCN(CCOP(=O)(O)O)CC5)cc4)ccc23)n[nH]1)Nc1cccc(F)c1 [Compound 13, 2-(4-(4-(4-(5-(2-(3-Fluorophenylamino)-2-oxoethyl)-1H-pyrazol-3-ylamino)quinazolin-7-yl)benzoyl)piperazin-1-yl)ethyl dihydrogen phosphate]
IC50 [1]: 1.91 nM
IC50 (Colo205; [3]): 9.39 nM
IC50 [2]: 0.34 nM
IC50 (HCT116; [4]): 6.43 nM

O=C(Cc1cc(Nc2ncnc3cc(-c4ccc(C(=O)N5CCN(CCO)CC5)cc4)ccc23)n[nH]1)Nc1cc(F)cc(F)c1 [Compound 14, N-(3,5-Difluorophenyl)-2-(3-(7-(4-(4-(2-hydroxyethyl)piperazine-1-carbonyl)phenyl)quinazolin-4-ylamino)-1H-pyrazol-5-yl)acetamide]
IC50 [1]: 2.29 nM
IC50 (Colo205; [3]): 8.11 nM
IC50 [2]: 0.83 nM
IC50 (HCT116; [4]): 5.75 nM

O=C(Cc1cc(Nc2ncnc3cc(-c4ccc(C(=O)N5CCN(CCO)CC5)cc4)ccc23)n[nH]1)Nc1cccc(F)c1F [Compound 15, N-(2,3-Difluorophenyl)-2-(3-(7-(4-(4-(2-hydroxyethyl)piperazine-1-carbonyl)phenyl)quinazolin-4-ylamino)-1H-pyrazol-5-yl)acetamide]
IC50 [1]: 1.89 nM
IC50 (Colo205; [3]): 3.07 nM
IC50 [2]: 0.63 nM
IC50 (HCT116; [4]): 1.71 nM

CC(=O)O[C@H]1C(=O)[C@@]2(C)[C@H]([C@H](OC(=O)c3ccccc3)[C@]3(O)C[C@H](OC(=O)[C@H](O)[C@@H](NC(=O)c4ccccc4)c4ccccc4)C(C)=C1C3(C)C)[C@]1(OC(C)=O)CO[C@@H]1C[C@@H]2O [Taxol, reference compound]
IC50 (Colo205; [3]): 2.54 nM
IC50 (MV-411; MV4-11, Leukemia, 72 hrs, 50% growth inhibition relative to control): 6.2 nM
IC50 (HL-60; HL-60, Leukemia, 72 hrs, 50% growth inhibition relative to control): 2.16 nM
IC50 (SW620; SW-620, Colorectal cancer, 168 hrs, 50% growth inhibition relative to control): 4.91 nM
IC50 (MCF-7; MCF7, Breast Cancer, 240 hrs, 50% growth inhibition relative to control): 0.58 nM
IC50 (HCT116; [4]): 2.04 nM

Cc1cc(Nc2cc(N3CCN(C)CC3)nc(Sc3ccc(NC(=O)C4CC4)cc3)n2)n[nH]1 [VX-680, reference compound]
IC50 (Colo205; COLO 205, 72 h): 30.2 nM
IC50 (MV-411; MV4-11, 72 h): 79 nM
IC50 (HL-60; HL-60, 72 h): 13.8 nM
IC50 (SW620; SW-620, 168 h): 21.8 nM
IC50 (MCF-7; MCF7, 240 h): 31 nM
IC50 (HCT116; HCT-116, 168 h): 18 nM
